Test results taken from patent US20230024192A1, “Citrate-Functionalized Polymeric Surfactants Based Upon Alkyl Polyglucosides” (Colonial Chemical, Inc., priority 2019, published 2023).

Columns and labels:
Zein = Zein Test, irritation potential of surfactants / cleansing formulations by amount of zein solubilized; parameters: species or system corn; details: anionic cleanser, FIG. 3
Method: Surfactants of the current invention were tested for their ability to reduce the irritation potential of cleansing formulations. We used the Zein Test [referenced in J. Surfact.
The Zein test is intended for determining the irritation potential of a surfactant or surfactant-based product. Zein, a corn protein similar to keratin present in the skin and hair, is insoluble in water unless it is denatured by an irritant. In this test, the irritant is a surfactant or surfactant-based product, and irritation potential is predicted by the amount of zein solubilized.

[1] = Salt curves, viscosity build in cleansing formulations (SLS- or AOS-based blends); type: physicochemical; details: incorporated into typical cleansing formulations with SLS or AOS, cocamidopropyl betaine, cocamide MEA; salt curves FIGS. 1 and 2
Method: The generalized cleansing formulations are shown in Table 1, where various anionic surfactants, or blends of anionic surfactants, were added to a betaine and an alkanolamide surfactant and water. The balance of the weight in these formulas is water. […] Salts curves were generated for both sulfate-free blends based on AOS, Sodium C14-16 Olefin Sulfonate (FIG. 2), as well as sodium lauryl sulfate-based blends (FIG. 1). The salt curves in FIG. 1 are for the following: 1) Sodium Lauryl Sulfate (SLS) alone: 2) Sodium Lauryl Sulfate:Water, 2:1; 3) Sodium Lauryl Sulfate:Disodium Laurylglucosides Hydroxypropyl Citrate 2:1; and 4) Sodium Lauryl Sulfate:Disodium Laurylglucosides Hydroxypropyl Citrate, 1:1. The salt curves in FIG. 2 are for the following: 1) Sodium C14-16 Olefin Sulfonate (AOS) alone: 2) Sodium C14-16 Olefin Sulfonate:Water, 2:1; 3) Sodium C14-16 Olefin Sulfonate:Disodium Laurylglucosides Hydroxypropyl Citrate, 2:1; and 4) Sodium C14-16 Olefin Sulfonate:Disodium Laurylglucosides Hydroxypropyl Citrate, 1:1. [table] […] Some formulations can achieve desired viscosity levels without any added salt, meeting the demand for that type of claim by some shampoo manufacturers.

Disodium Laurylglucosides Hydroxypropyl Citrate
irritation potential in cleansing formulations (Zein Test) (Zein): effective at reducing irritation potential | viscosity build [1]: fast and high viscosity build
